For four compounds, melting point and IC50 results are on record in US8063044B2, “Pyrazole derivatives” (Pfizer Inc., priority 2001, dated 2011).

pIC50: −log10 of the molar value.

Data set [1] addresses T1, purified recombinant HIV-1 reverse transcriptase (Human immunodeficiency virus type 1 group M subtype B, UniProt P04585).
T1 construct: purified recombinant HIV-1 reverse transcriptase (RT, EC, 2.7.7.49); made in house; host or cells: Escherichia coli
Kind of data set: Inhibition of HIV-1 reverse transcriptase enzyme ([3H]-SPA or flashplate assay). To be noted: recombinant RT expressed in Escherichia Coli; Poly(rA)-oligo(dT) [3H]-SPA or [3H]-flashplate assay; 5% final DMSO; read-out: IC50 (concentration at which the compound inhibited the reverse transcriptase by 50%). It counts as biochemical. An excerpt: A. Inhibition of HIV-1 Reverse Transcriptase Enzyme
The reverse transcriptase activity of the compounds of the invention may be assayed as following. Using the purified recombinant HIV-1 reverse transcriptase (RT, EC, 2.7.7.49) obtained by expression in Escherichia Coli, a 96-well plate assay system was established for assaying a large number of samples using either the Poly(rA)-oligo(dT) Reverse Transcriptase [3H]-SPA enzyme assay system (Amersham NK9020) or the [3H]-flashplate enzyme assay system (NEN-SMP 103) and following the manufacturer's recommendations. The compounds were dissolved in 100% DMSO and diluted with the appropriate buffer to a 5% final DMSO concentration. The inhibitory activity was expressed in percent inhibition relative to the DMSO control.

As usually defined, the melting point is the temperature of the solid-liquid transition. `CCc1nn(CC#N)c(CC)c1Oc1cc(Cl)cc(Cl)c1` registered a melting point of 70 to 72 °C.
With `CCc1nn(CCO)c(CC)c1Oc1c(C)cc(C#N)cc1C` [Example 20], the pIC50 in data set [1] is 5.49.
For `CCc1nn(Cc2cc(=O)[nH]c(N)n2)c(CC)c1Oc1cc(Cl)cc(Cl)c1` [Example 7, 2-Amino-6-{[4-(3,5-dichlorophenoxy)-3,5-diethyl-1H-pyrazol-1-yl]methyl}-4(3H)-pyrimidinone], the pIC50 in data set [1] is 4.41.
Still for that read-out and setting: as for `CCc1nn(C2CNC2)c(CC)c1Oc1cc(Cl)cc(Cl)c1` [Example 51, 1-(3-Azetidinyl)-4-(3,5-dichlorophenoxy)-3,5-diethyl-1H-pyrazole], the figure is 6.61.
